Laboratory results published in ChEMBL document CHEMBL4627384, “l-Thyroxin and the Nonclassical Thyroid Hormone TETRAC Are Potent Activators of PPARγ” (J Med Chem, 2020).
Activity calls are given as the source filed them. The calls are words filed in the database; no cut-off is given here.

Experiments:
[1] = target: T1, Retinoic acid receptor RXR-alpha (Homo sapiens, UniProt P19793); assay: Binding affinity to RXRalpha LBD (unknown origin) by isothermal titration calorimetry
T1 sequence (P19793 whole entry): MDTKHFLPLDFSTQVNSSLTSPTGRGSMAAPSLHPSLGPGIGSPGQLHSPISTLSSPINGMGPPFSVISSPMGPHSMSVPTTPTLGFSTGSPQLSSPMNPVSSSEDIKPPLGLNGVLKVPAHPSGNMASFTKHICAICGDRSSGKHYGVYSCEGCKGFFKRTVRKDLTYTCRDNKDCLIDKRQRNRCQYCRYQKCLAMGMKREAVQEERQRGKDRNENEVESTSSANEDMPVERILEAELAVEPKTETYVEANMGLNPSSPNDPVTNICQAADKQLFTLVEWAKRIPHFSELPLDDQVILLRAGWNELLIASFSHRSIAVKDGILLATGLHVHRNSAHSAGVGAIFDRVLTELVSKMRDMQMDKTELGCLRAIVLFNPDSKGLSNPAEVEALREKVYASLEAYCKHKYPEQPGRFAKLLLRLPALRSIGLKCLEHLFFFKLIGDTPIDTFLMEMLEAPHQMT

[2] = target: T2, Retinoic acid receptor RXR-alpha (Homo sapiens) (UniProt P19793); assay: Agonist activity at recombinant human pFA-CMV fused RXRalpha LBD expressed in HEK293T cells transfected with pFR-luciferase plasmid and pRL-SV40 plasmid incubated for 14 to 16 hrs by dual glo luciferase reporter gene assay relative to control; assay type: cell-based; conditions: HEK-293T
T2 sequence (whole entry): T1 sequence (P19793 whole entry)

[3] = target: T3, Peroxisome proliferator-activated receptor gamma (Homo sapiens, UniProt P37231); assay: Binding affinity to recombinant PPARgamma LBD (unknown origin) by isothermal titration calorimetry
T3 sequence (P37231 whole entry): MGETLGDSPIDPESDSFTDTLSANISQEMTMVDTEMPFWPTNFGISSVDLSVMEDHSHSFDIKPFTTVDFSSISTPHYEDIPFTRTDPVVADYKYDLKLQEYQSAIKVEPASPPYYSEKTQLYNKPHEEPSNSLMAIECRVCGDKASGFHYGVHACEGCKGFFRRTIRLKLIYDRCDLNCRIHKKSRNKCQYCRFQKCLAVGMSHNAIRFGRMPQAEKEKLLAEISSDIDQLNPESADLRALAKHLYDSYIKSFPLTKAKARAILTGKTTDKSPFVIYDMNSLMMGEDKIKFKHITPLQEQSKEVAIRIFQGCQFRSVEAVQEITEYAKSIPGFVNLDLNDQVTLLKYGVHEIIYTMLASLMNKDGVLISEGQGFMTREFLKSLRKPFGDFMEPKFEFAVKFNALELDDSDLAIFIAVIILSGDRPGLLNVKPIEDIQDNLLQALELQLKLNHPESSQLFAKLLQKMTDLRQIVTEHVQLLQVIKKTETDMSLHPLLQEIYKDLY

[4] = target: T4, Peroxisome proliferator-activated receptor gamma (Homo sapiens) (UniProt P37231); assay: Agonist activity at PPARgamma in human HepG2 cells with THRA knockdown assessed as induction of CD36 mRNA expression incubated for 8 hrs by qPCR analysis; assay type: cell-based
T4 sequence (whole entry): T3 sequence (P37231 whole entry)

[5] = target: T4, Peroxisome proliferator-activated receptor gamma (Homo sapiens); assay: Agonist activity at PPARgamma in human HepG2 cells with THRB knockdown assessed as induction of CD36 mRNA expression incubated for 8 hrs by qPCR analysis; assay type: cell-based
[6] = target: T1, Retinoic acid receptor RXR-alpha; assay: Agonist activity at recombinant human pFA-CMV fused RXRalpha LBD expressed in HEK293T cells transfected with pFR-luciferase plasmid and pRL-SV40 plasmid incubated for 14 to 16 hrs by dual glo luciferase reporter gene assay; assay type: cell-based, HEK-293T; conditions: read-out: EC50
[7] = Drug metabolism in human HepG2 cells assessed as (S)-2-amino-3-(4-(4-hydroxy-3-iodophenoxy)-3,5-diiodophenyl)propanoic acid formation at 10 uM incubated for 24 hrs by LC-MS analysis; assay type: ADME, cell-based; conditions: hepg2, 24 h
[8] = target: T2, Retinoic acid receptor RXR-alpha (Homo sapiens); assay: Agonist activity at recombinant human pFA-CMV fused RXRalpha LBD expressed in HEK293T cells transfected with pFR-luciferase plasmid and pRL-SV40 plasmid at 10 uM incubated for 14 to 16 hrs by dual glo luciferase reporter gene assay; assay type: cell-based; conditions: HEK-293T
[9] = target: T3, Peroxisome proliferator-activated receptor gamma; assay: Agonist activity at recombinant human pFA-CMV fused PPARgamma expressed in HEK293T cells transfected with pFR-luciferase plasmid and pRL-SV40 plasmid incubated for 14 to 16 hrs by dual glo luciferase reporter gene assay; assay type: cell-based, HEK-293T
[10] = target: T5, Retinoic acid receptor RXR-gamma (Homo sapiens) (UniProt P48443); assay: Agonist activity at recombinant human pFA-CMV fused RXRgamma LBD expressed in HEK293T cells transfected with pFR-luciferase plasmid and pRL-SV40 plasmid at 10 uM incubated for 14 to 16 hrs by dual glo luciferase reporter gene assay; assay type: cell-based; conditions: HEK-293T
T5 sequence (whole entry): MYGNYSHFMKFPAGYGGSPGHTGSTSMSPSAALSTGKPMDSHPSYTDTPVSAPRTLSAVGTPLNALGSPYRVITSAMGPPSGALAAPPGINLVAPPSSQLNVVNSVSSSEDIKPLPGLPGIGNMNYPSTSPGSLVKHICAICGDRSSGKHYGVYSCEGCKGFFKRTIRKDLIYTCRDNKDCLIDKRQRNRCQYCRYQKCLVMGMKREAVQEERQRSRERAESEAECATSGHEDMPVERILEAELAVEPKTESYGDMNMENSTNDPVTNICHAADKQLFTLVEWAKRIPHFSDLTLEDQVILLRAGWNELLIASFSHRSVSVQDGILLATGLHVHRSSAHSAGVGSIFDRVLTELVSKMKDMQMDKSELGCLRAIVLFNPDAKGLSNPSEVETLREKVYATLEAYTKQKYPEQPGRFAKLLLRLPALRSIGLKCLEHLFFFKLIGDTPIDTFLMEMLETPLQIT

[11] = target: T4, Peroxisome proliferator-activated receptor gamma (Homo sapiens); assay: Agonist activity at PPARgamma in human HepG2 cells without THRB knockdown assessed as induction of CD36 expression at 30 uM incubated for 8 hrs in by Western blot analysis; assay type: cell-based
[12] = target: T6, Retinoic acid receptor RXR-beta (Homo sapiens) (UniProt P28702); assay: Agonist activity at recombinant human pFA-CMV fused RXRbeta LBD expressed in HEK293T cells transfected with pFR-luciferase plasmid and pRL-SV40 plasmid at 10 uM incubated for 14 to 16 hrs by dual glo luciferase reporter gene assay; assay type: cell-based; conditions: HEK-293T
T6 sequence (whole entry): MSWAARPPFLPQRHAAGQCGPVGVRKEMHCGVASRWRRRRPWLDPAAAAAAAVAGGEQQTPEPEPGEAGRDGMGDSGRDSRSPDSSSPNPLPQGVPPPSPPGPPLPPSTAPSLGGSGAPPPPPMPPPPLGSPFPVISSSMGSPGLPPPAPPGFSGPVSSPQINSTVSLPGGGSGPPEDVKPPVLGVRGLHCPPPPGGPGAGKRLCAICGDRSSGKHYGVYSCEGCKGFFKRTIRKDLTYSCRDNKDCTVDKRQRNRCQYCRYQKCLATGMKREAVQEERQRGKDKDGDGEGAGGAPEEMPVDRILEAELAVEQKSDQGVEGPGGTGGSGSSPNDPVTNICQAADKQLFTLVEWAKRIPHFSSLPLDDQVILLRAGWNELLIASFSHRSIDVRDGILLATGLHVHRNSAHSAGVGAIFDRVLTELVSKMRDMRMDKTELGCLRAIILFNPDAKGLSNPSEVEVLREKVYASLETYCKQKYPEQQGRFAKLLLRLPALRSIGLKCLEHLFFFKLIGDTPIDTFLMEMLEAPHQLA

Row | Kd [1] [nM] | fold change (FC) [2] | Kd [3] [nM] | Activity [4] | Activity [5] | EC50 [6] [nM] | Drug metabolism [7] [ng] | Activity [8] | EC50 [9] [nM] | Activity [10] | Activity [11] | Activity [12] | SMILES
1 | 930 | 7.4 | 400 | Dose-dependent effect | Dose-dependent effect | 15400 | 174 | Active | 12000 | Active | Active | Active | N[C@@H](Cc1cc(I)c(Oc2cc(I)c(O)c(I)c2)c(I)c1)C(=O)O [LEVOTHYROXINE]
2 | 1500 | 9.1 | 110 | Dose-dependent effect | Dose-dependent effect | 1320 | – | Active | 100 | Active | – | Active | O=C(O)Cc1cc(I)c(Oc2cc(I)c(O)c(I)c2)c(I)c1 [TETRAC]
